In US12643910B2, “Substituted pyrazolo[3,4-b]pyridines as ectonucleotide pyrophosphatase/phosphodiesterase 1 (ENPP1) modulators” (SANFORD BURNHAM PREBYS MEDICAL DISCOVERY INSTITUTE, priority 2019, dated 2026):

Key:
human ENPP1 = biological target: T1, human ENPP1 (Homo sapiens, UniProt P22413); assay: ENPP1 assay with ATP substrate (Transcreener AMP2/GMP2 TR-FRET); format: biochemical; details: 1 hour at room temperature
T1 construct: made in house
T1 sequence (P22413 1-925): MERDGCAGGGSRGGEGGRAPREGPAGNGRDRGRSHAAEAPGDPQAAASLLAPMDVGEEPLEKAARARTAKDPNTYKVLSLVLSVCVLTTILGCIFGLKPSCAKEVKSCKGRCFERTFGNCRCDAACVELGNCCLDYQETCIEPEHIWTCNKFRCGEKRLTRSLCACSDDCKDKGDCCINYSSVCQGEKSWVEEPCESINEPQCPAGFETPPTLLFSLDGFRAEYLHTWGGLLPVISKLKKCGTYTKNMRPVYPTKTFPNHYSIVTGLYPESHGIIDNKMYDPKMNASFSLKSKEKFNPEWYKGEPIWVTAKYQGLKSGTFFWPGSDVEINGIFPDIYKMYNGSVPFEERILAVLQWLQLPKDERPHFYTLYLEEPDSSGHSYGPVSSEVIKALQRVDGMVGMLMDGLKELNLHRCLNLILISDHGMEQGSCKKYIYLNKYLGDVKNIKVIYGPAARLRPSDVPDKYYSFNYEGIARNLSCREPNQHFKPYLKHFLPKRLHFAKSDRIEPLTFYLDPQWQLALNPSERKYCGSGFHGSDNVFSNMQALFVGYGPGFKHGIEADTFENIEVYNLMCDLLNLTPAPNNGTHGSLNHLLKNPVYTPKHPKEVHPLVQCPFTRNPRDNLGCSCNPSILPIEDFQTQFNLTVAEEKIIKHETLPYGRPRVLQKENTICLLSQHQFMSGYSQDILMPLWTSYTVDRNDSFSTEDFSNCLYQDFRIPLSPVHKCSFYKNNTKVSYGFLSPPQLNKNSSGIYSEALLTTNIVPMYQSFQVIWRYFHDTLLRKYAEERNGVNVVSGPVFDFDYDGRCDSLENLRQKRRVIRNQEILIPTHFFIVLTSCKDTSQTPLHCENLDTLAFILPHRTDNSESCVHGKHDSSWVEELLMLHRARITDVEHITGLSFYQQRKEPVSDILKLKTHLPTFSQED
Method in brief: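 Reaction ran 1 h at room temperature in pH 7.5 Tris with MgCl2, TCEP, Tween 20 and 1% DMSO. ATP was added as a 300 nM stock and enzyme as an 8.5 μM stock. After EDTA stop, AMP was read by TR-FRET tracer displacement. Percent inhibition used enzyme/no-enzyme controls; IC50 was fitted with a variable slope.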

ENPP3 = biological target: T2, ENPP3 (Homo sapiens, UniProt O14638); assay: ENPP3 Km ATP assay; format: biochemical; details: ATP at Km
T2 sequence (O14638 1-875): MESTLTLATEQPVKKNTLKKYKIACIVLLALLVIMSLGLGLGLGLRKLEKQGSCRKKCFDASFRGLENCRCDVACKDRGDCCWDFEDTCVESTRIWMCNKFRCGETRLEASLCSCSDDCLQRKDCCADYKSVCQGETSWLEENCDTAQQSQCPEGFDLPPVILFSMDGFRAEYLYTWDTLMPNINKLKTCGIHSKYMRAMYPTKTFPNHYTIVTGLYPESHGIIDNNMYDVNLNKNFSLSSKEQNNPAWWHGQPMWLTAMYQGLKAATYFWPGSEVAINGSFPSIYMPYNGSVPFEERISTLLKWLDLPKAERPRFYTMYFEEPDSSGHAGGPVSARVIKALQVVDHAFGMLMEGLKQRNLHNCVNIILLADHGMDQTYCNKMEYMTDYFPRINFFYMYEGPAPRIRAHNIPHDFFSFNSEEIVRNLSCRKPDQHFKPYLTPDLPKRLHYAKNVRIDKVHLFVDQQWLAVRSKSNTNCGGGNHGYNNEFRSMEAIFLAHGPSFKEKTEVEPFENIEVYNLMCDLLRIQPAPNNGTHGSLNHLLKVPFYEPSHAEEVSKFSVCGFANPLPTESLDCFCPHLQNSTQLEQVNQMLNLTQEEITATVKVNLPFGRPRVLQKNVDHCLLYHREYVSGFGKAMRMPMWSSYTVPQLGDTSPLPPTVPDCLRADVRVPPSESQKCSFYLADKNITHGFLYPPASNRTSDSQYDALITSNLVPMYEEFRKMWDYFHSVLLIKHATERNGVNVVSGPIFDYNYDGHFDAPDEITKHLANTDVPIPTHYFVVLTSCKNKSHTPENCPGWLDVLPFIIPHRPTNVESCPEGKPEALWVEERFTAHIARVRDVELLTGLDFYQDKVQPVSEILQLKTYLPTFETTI

Compound	IC50 (human ENPP1) [µM]	IC50 (ENPP3) [µM]
Cn1ncc2c(NCc3ccc(S(N)(=O)=O)s3)nc(Cl)nc21 [Example 2.85, 5-((6-Chloro-1-methyl-1H-pyrazolo[3,4-d]pyrimidin-4-yl)aminomethyl)thiophene-2-sulfonamide]	0.1 to 1	0.1 to 1
Cn1ncc2c(NCc3ccc(S(N)(=O)=O)cc3)cc(N3CCCC3)nc21 [Example 2.77, 4-(((1-Methyl-6-(pyrrolidin-1-yl)-1H-pyrazolo[3,4-b]pyridin-4-yl)amino)methyl)-benzenesulfonamide]	1 to 20	0.1 to 1
CCn1ncc2c(NCc3ccc(S(N)(=O)=O)cc3)nc(OCCC(C)C)nc21 [Example 2.102, 4-((1-Ethyl-6-(3-methylbutoxy)-1H-pyrazolo[3,4-d]pyrimidin-4-yl)aminomethyl)-benzenesulfonamide]	< 0.1	0.1 to 1
Cn1nc(Br)c2c(NCc3ccc(S(N)(=O)=O)cc3)nc(N3CCCCC3)nc21 [Example 2.131, 4-((3-Bromo-1-methyl-6-piperidino-1H-pyrazolo[3,4-d]pyrimidin-4-yl)aminomethyl)benzenesulfonamide]	1 to 20	< 0.1
COc1cc(S(N)(=O)=O)ccc1CNc1nc(-c2ccccn2)nc2scc(-c3ccccc3)c12 [Example 1.17, 3-Methoxy-4-(((5-phenyl-2-(pyridin-2-yl)thieno[2,3-d]pyrimidin-4-yl)amino)methyl)-benzenesulfonamide]	< 0.1	1 to 20
CCNc1nc(NCc2ccc(S(N)(=O)=O)cc2)c2cnn(C)c2n1 [Example 2.49, 4-(((6-(Ethylamino)-1-methyl-1H-pyrazolo[3,4-d]pyrimidin-4-yl)amino)methyl)-benzenesulfonamide]	0.1 to 1	0.1 to 1
CC(C)CCOc1nc(NCc2ccc(S(N)(=O)=O)cc2)c2cnn(C)c2n1 [Example 2.101, 4-((1-Methyl-6-(3-methylbutoxy)-1H-pyrazolo[3,4-d]pyrimidin-4-yl)aminomethyl)-benzenesulfonamide]	< 0.1	0.1 to 1
CN(C)CCN(C)c1nc(NCc2ccc(S(N)(=O)=O)cc2)c2c(-c3ccccc3)csc2n1 [Example 1.58, 4-((2-((N-2-(Dimethylamino)ethyl)-N-methylamino)-5-phenylthieno[2,3-d]pyrimidin-4-yl)aminomethyl)benzenesulfonamide]	< 0.1	< 0.1
Cn1ncc2c(NCc3ccc(S(N)(=O)=O)cc3)nc(NC3CCCCC3)nc21 [Example 2.30, 4-(((6-(Cyclohexylamino)-1-methyl-1H-pyrazolo[3,4-d]pyrimidin-4-yl)amino)methyl)-benzenesulfonamide]	1 to 20	1 to 20
CCSc1nc(NCc2ccc(S(N)(=O)=O)cc2)c2cnn(CC)c2n1 [Example 2.109, 4-((1-Ethyl-6-(ethylsulfanyl)-1H-pyrazolo[3,4-d]pyrimidin-4-yl)aminomethyl)-benzenesulfonamide]	< 0.1	0.1 to 1
Cn1ncc2c(NCc3ccc(S(N)(=O)=O)cc3F)ccnc21 [Example 2.64, 3-Fluoro-4-(((1-methyl-1H-pyrazolo[3,4-b]pyridin-4-yl)amino)methyl)benzenesulfonamide]	< 0.1	0.1 to 1
Cn1ncc2c(N3CCC(NCCCc4ccncc4)CC3)nc(-c3ccccc3)nc21 [Example 2.7, 1-(1-Methyl-6-phenyl-1H-pyrazolo[3,4-d]pyrimidin-4-yl)-N-(3-(pyridin-4-yl)propyl)piperidin-4-amine]	> 20	> 20
Cn1ncc2c(NCc3ccc(S(N)(=O)=O)nc3)ccnc21 [Example 2.72, 5-(((1-Methyl-1H-pyrazolo[3,4-b]pyridin-4-yl)amino)methyl)pyridine-2-sulfonamide]	< 0.1	0.1 to 1
Cc1csc2c(N3CCC(NCCc4ccncc4)CC3)ncnc12 [Example 3.25, 1-(7-Methylthieno[3,2-d]pyrimidin-4-yl)-N-(2-(pyridin-4-yl)ethyl)piperidin-4-amine]	0.1 to 1	> 20
COc1ccc(CCCNC2CCN(c3ncnc4c(C)csc34)CC2)cc1 [Example 3.32, N-(3-(4-Methoxyphenyl)propyl)-1-(7-methylthieno[3,2-d]pyrimidin-4-yl)piperidin-4-amine]	0.1 to 1	> 20
Cn1ncc2c(NCc3ccc(S(N)(=O)=O)cc3)nc(-c3ccccn3)nc21 [Example 2.10, 4-(((1-Methyl-6-(pyridin-2-yl)-1H-pyrazolo[3,4-d]pyrimidin-4-yl)amino)methyl)-benzenesulfonamide]	< 0.1	1 to 20
Cc1nc(NCc2ccc(S(N)(=O)=O)s2)c2c(-c3ccccc3)csc2n1 [Example 1.45, 5-(((2-Methyl-5-phenylthieno[2,3-d]pyrimidin-4-yl)amino)methyl)thiophene-2-sulfonamide]	> 20	> 20
NS(=O)(=O)c1ccc(CNc2ncnc3scc(Br)c23)cc1 [Example 1.49, 4-((5-Bromothieno[2,3-d]pyrimidin-4-yl)aminomethyl)benzenesulfonamide]	0.1 to 1	< 0.1
Cn1ncc2c(NCc3ccc(S(N)(=O)=O)s3)nc(-c3ccccn3)nc21 [Example 2.24, 5-(((1-Methyl-6-(pyridin-2-yl)-1H-pyrazolo[3,4-d]pyrimidin-4-yl)amino)methyl)thiophene-2-sulfonamide]	0.1 to 1	0.1 to 1
CN(c1ccccc1)c1nc(NCc2ccc(S(N)(=O)=O)cc2)c2cnn(C)c2n1 [Example 2.36, 4-(((1-Methyl-6-(methyl(phenyl)amino)-1H-pyrazolo[3,4-d]pyrimidin-4-yl)amino)methyl)-benzenesulfonamide]	> 20	0.1 to 1
NS(=O)(=O)c1ccc(CNc2nc(NCCCO)nc3scc(-c4ccccc4)c23)cc1 [Example 1.51, 4-((2-(3-Hydroxypropyl)amino-5-phenylthieno[2,3-d]pyrimidin-4-yl)aminomethyl)-benzenesulfonamide]	< 0.1	< 0.1
Cc1csc2c(N3CCC(NC(=O)CCc4cccc(F)c4)CC3)ncnc12 [Example 3.39, 3-(3-Fluorophenyl)-N-(1-(7-methylthieno[3,2-d]pyrimidin-4-yl)piperidin-4-yl)propanamide]	> 20	> 20
CNc1cc(NCc2ccc(S(N)(=O)=O)cc2)c2cnn(C)c2n1 [Example 2.76, 4-(((1-Methyl-6-(methylamino)-1H-pyrazolo[3,4-b]pyridin-4-yl)amino)methyl)-benzenesulfonamide]	1 to 20	0.1 to 1
Cc1csc2c(N3CCC(NCCCc4ccncc4)C3)ncnc12 (centres unmarked) [Example 3.29, 1-(7-Methylthieno[3,2-d]pyrimidin-4-yl)-N-(3-(pyridin-4-yl)propyl)pyrrolidin-3-amine]	0.1 to 1	> 20
Cc1nc(NCc2ccc(S(N)(=O)=O)cc2)c2c(C3CCCC3)nn(C)c2n1 [Example 2.135, 4-((3-Cyclopentyl-1,6-dimethyl-1H-pyrazolo[3,4-d]pyrimidin-4-yl)aminomethyl)benzenesulfonamide]	1 to 20	1 to 20
